Test results: patent US20020111274A1, “1-alkyl-3-[1-(substituted phenyl) benzotriazol-6-yl] uracils” (BASF Aktiengesellschaft, priority 2000, published 2002)

Legend:
Parameters in all cases: scale not given here
[1] = test system: ZEAMX Corn, Field; assay: Postemergence herbicidal evaluation, ZEAMX; type: in vivo, Zea mays, L. (Sammel-Bezeichnung); conditions: postemergence spray, rated about two-three weeks after treatment
Summary of the method: (§1)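 Two-week-old seedlings sprayed postemergence with compound in 80/20 acetone/water plus 1.0% methylated seed oil, at about 0.006–0.400 kg/ha, through a nozzle at 40 psi. Plants kept under greenhouse conditions and visually rated about two–three weeks after treatment; ratings from repeat tests averaged.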

[2] = test system: CHEAL Lambsquarters, Common; assay: Preemergence herbicidal evaluation, CHEAL; type: in vivo, Chenopodium album, L.; conditions: preemergence
Summary of the method: (§2)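 Seeds mixed with potting soil in cups, then sprayed preemergence with aqueous acetone test solution at about 0.013 to 0.800 kg per hectare equivalent. Cups kept under standard greenhouse care; plants rated on a visual scale four to five weeks after treatment.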

[3] = test system: TRZAWR Wheat, Winter, cv Riband; assay: Postemergence herbicidal evaluation, TRZAWR; type: in vivo, Triticum aestivum; conditions: postemergence spray, rated about two-three weeks after treatment
Summary of the method: as §1

[4] = test system: AMBEL Ragweed, Common; assay: Preemergence herbicidal evaluation, AMBEL; type: in vivo, Ambrosia artemisifolia, L.; conditions: preemergence
Summary of the method: as §2

[5] = test system: TRZAWR Wheat, Winter, cv Riband; assay: Preemergence herbicidal evaluation, TRZAWR; type: in vivo, Triticum aestivum; conditions: preemergence
Summary of the method: as §2

[6] = test system: ZEAMX Corn, Field; assay: Preemergence herbicidal evaluation, ZEAMX; type: in vivo, Zea mays, L. (Sammel-Bezeichnung); conditions: preemergence
Summary of the method: as §2

[7] = test system: GALAP Galium; assay: Preemergence herbicidal evaluation, GALAP; type: in vivo, Galium aparine; conditions: preemergence
Summary of the method: as §2

[8] = test system: ORYSAT Rice, Tebonnet; assay: Preemergence herbicidal evaluation, ORYSAT; type: in vivo, Oryza sativa, (L.); conditions: preemergence
Summary of the method: as §2

[9] = test system: ORYSAT Rice, Tebonnet; assay: Postemergence herbicidal evaluation, ORYSAT; type: in vivo, Oryza sativa, (L.); conditions: postemergence spray, rated about two-three weeks after treatment
Summary of the method: as §1

[10] = test system: CASOB Sicklepod; assay: Postemergence herbicidal evaluation, CASOB; type: in vivo, Cassia obtusifolia, L.; conditions: postemergence spray, rated about two-three weeks after treatment
Summary of the method: as §1

[11] = test system: SETVI Foxtail, Green; assay: Postemergence herbicidal evaluation, SETVI; type: in vivo, Setaria viridis, (L.) Beau; conditions: postemergence spray, rated about two-three weeks after treatment
Summary of the method: as §1

[12] = test system: AMBEL Ragweed, Common; assay: Postemergence herbicidal evaluation, AMBEL; type: in vivo, Ambrosia artemisifolia, L.; conditions: postemergence spray, rated about two-three weeks after treatment
Summary of the method: as §1

[13] = test system: ABUTH Velvetleaf; assay: Preemergence herbicidal evaluation, ABUTH; type: in vivo, Abutilon theophrasti, Medic.; conditions: preemergence
Summary of the method: as §2

[14] = test system: IPOHE Morningglory, Ivyleaf; assay: Preemergence herbicidal evaluation, IPOHE; type: in vivo, Ipomoea hederacea, (L.) Jacq.; conditions: preemergence
Summary of the method: as §2

[15] = test system: ECHOG Barnyardgrass; assay: Preemergence herbicidal evaluation, ECHOG; type: in vivo, Echinochloa crus-galli, (L.) Beau; conditions: preemergence
Summary of the method: as §2

[16] = test system: GLXMAW Soybean, Williams; assay: Preemergence herbicidal evaluation, GLXMAW; type: in vivo, Glycine max, (L.) Merr. cv Williams; conditions: preemergence
Summary of the method: as §2

[17] = test system: GALAP Galium; assay: Postemergence herbicidal evaluation, GALAP; type: in vivo, Galium aparine; conditions: postemergence spray, rated about two-three weeks after treatment
Summary of the method: as §1

[18] = test system: GLXMAW Soybean, Williams; assay: Postemergence herbicidal evaluation, GLXMAW; type: in vivo, Glycine max, (L.) Merr. cv Williams; conditions: postemergence spray, rated about two-three weeks after treatment
Summary of the method: as §1

[19] = test system: CASOB Sicklepod; assay: Preemergence herbicidal evaluation, CASOB; type: in vivo, Cassia obtusifolia, L.; conditions: preemergence
Summary of the method: as §2

Cc1ccc(O)c(-n2nnc3cc(F)c(-n4c(=O)cc(C(F)(F)F)n(C)c4=O)cc32)c1 [Example 31, 3-[5-Fluoro-1-(2-Hydroxy-5-Methylphenyl)-1H-1,2,3-Benzotriazol-6-yl]-1-Methyl-6-(Trifluoromethyl)-2,4(1H,3H)-(Pyrimidinedione)]
Postemergence herbicidal rating ZEAMX ([1]; 0.008 kg/ha): 3.5 | Postemergence herbicidal rating ZEAMX ([1]; 0.016 kg/ha): 3.5 | Postemergence herbicidal rating ZEAMX ([1]; 0.032 kg/ha): 4.5 | Postemergence herbicidal rating ZEAMX ([1]; 0.062 kg/ha): 4.5 | CHEAL herbicidal rating ([2]; rate 0.008 kg/ha): 0.0 | CHEAL herbicidal rating ([2]; rate 0.016 kg/ha): 0.0 | CHEAL herbicidal rating ([2]; rate 0.032 kg/ha): 0.0 | CHEAL herbicidal rating ([2]; rate 0.062 kg/ha): 3.0 | CHEAL herbicidal rating ([2]; rate 0.125 kg/ha): 9.0 | Postemergence herbicidal rating TRZAWR ([3]; 0.008 kg/ha): 2.0 | Postemergence herbicidal rating TRZAWR ([3]; 0.016 kg/ha): 2.0 | Postemergence herbicidal rating TRZAWR ([3]; 0.032 kg/ha): 3.0 | Postemergence herbicidal rating TRZAWR ([3]; 0.062 kg/ha): 3.0 | AMBEL herbicidal rating ([4]; rate 0.008 kg/ha): 0.0 | AMBEL herbicidal rating ([4]; rate 0.016 kg/ha): 0.0 | AMBEL herbicidal rating ([4]; rate 0.032 kg/ha): 0.0 | AMBEL herbicidal rating ([4]; rate 0.062 kg/ha): 0.0 | AMBEL herbicidal rating ([4]; rate 0.125 kg/ha): 0.0 | TRZAWR herbicidal rating ([5]; rate 0.008 kg/ha): 0.0 | TRZAWR herbicidal rating ([5]; rate 0.016 kg/ha): 0.0 | TRZAWR herbicidal rating ([5]; rate 0.032 kg/ha): 0.0 | TRZAWR herbicidal rating ([5]; rate 0.062 kg/ha): 0.0 | TRZAWR herbicidal rating ([5]; rate 0.125 kg/ha): 0.0 | ZEAMX herbicidal rating ([6]; rate 0.008 kg/ha): 0.0 | ZEAMX herbicidal rating ([6]; rate 0.016 kg/ha): 0.0 | ZEAMX herbicidal rating ([6]; rate 0.032 kg/ha): 0.0 | ZEAMX herbicidal rating ([6]; rate 0.062 kg/ha): 0.0 | ZEAMX herbicidal rating ([6]; rate 0.125 kg/ha): 0.0 | GALAP herbicidal rating ([7]; rate 0.008 kg/ha): 0.0 | GALAP herbicidal rating ([7]; rate 0.016 kg/ha): 0.0 | GALAP herbicidal rating ([7]; rate 0.032 kg/ha): 0.0 | GALAP herbicidal rating ([7]; rate 0.062 kg/ha): 0.0 | GALAP herbicidal rating ([7]; rate 0.125 kg/ha): 0.0 | ORYSAT herbicidal rating ([8]; rate 0.008 kg/ha): 0.0 | ORYSAT herbicidal rating ([8]; rate 0.016 kg/ha): 0.0 | ORYSAT herbicidal rating ([8]; rate 0.032 kg/ha): 0.0 | ORYSAT herbicidal rating ([8]; rate 0.062 kg/ha): 0.0 | ORYSAT herbicidal rating ([8]; rate 0.125 kg/ha): 0.0 | Postemergence herbicidal rating ORYSAT ([9]; 0.008 kg/ha): 1.0 | Postemergence herbicidal rating ORYSAT ([9]; 0.016 kg/ha): 1.0 | Postemergence herbicidal rating ORYSAT ([9]; 0.032 kg/ha): 1.5 | Postemergence herbicidal rating ORYSAT ([9]; 0.062 kg/ha): 1.5 | Postemergence herbicidal rating CASOB ([10]; 0.008 kg/ha): 0.0 | Postemergence herbicidal rating CASOB ([10]; 0.016 kg/ha): 0.0 | Postemergence herbicidal rating CASOB ([10]; 0.032 kg/ha): 0.0 | Postemergence herbicidal rating CASOB ([10]; 0.062 kg/ha): 0.0 | Postemergence herbicidal rating SETVI ([11]; 0.008 kg/ha): 0.0 | Postemergence herbicidal rating SETVI ([11]; 0.016 kg/ha): 0.0 | Postemergence herbicidal rating SETVI ([11]; 0.032 kg/ha): 0.0 | Postemergence herbicidal rating SETVI ([11]; 0.062 kg/ha): 5.0 | Postemergence herbicidal rating AMBEL ([12]; 0.008 kg/ha): 0.0 | Postemergence herbicidal rating AMBEL ([12]; 0.016 kg/ha): 0.0 | Postemergence herbicidal rating AMBEL ([12]; 0.032 kg/ha): 0.0 | Postemergence herbicidal rating AMBEL ([12]; 0.062 kg/ha): 3.0 | ABUTH herbicidal rating ([13]; rate 0.008 kg/ha): 0.0 | ABUTH herbicidal rating ([13]; rate 0.016 kg/ha): 0.0 | ABUTH herbicidal rating ([13]; rate 0.032 kg/ha): 0.0 | ABUTH herbicidal rating ([13]; rate 0.062 kg/ha): 0.0 | ABUTH herbicidal rating ([13]; rate 0.125 kg/ha): 3.0 | IPOHE herbicidal rating ([14]; rate 0.008 kg/ha): 0.0 | IPOHE herbicidal rating ([14]; rate 0.016 kg/ha): 0.0 | IPOHE herbicidal rating ([14]; rate 0.032 kg/ha): 0.0 | IPOHE herbicidal rating ([14]; rate 0.062 kg/ha): 0.0 | IPOHE herbicidal rating ([14]; rate 0.125 kg/ha): 0.0 | ECHCG herbicidal rating ([15]; rate 0.008 kg/ha): 0.0 | ECHCG herbicidal rating ([15]; rate 0.016 kg/ha): 0.0 | ECHCG herbicidal rating ([15]; rate 0.032 kg/ha): 0.0 | ECHCG herbicidal rating ([15]; rate 0.062 kg/ha): 0.0 | ECHCG herbicidal rating ([15]; rate 0.125 kg/ha): 0.0 | GLXMAW herbicidal rating ([16]; rate 0.008 kg/ha): 0.0 | GLXMAW herbicidal rating ([16]; rate 0.016 kg/ha): 0.0 | GLXMAW herbicidal rating ([16]; rate 0.032 kg/ha): 0.0 | GLXMAW herbicidal rating ([16]; rate 0.062 kg/ha): 0.0 | GLXMAW herbicidal rating ([16]; rate 0.125 kg/ha): 0.0 | Postemergence herbicidal rating GALAP ([17]; 0.008 kg/ha): 0.0 | Postemergence herbicidal rating GALAP ([17]; 0.016 kg/ha): 0.0 | Postemergence herbicidal rating GALAP ([17]; 0.032 kg/ha): 0.0 | Postemergence herbicidal rating GALAP ([17]; 0.062 kg/ha): 0.0 | Postemergence herbicidal rating GLXMAW ([18]; 0.008 kg/ha): 3.5 | Postemergence herbicidal rating GLXMAW ([18]; 0.016 kg/ha): 3.5 | Postemergence herbicidal rating GLXMAW ([18]; 0.032 kg/ha): 4.5 | Postemergence herbicidal rating GLXMAW ([18]; 0.062 kg/ha): 5.0 | CASOB herbicidal rating ([19]; rate 0.008 kg/ha): 0.0 | CASOB herbicidal rating ([19]; rate 0.016 kg/ha): 0.0 | CASOB herbicidal rating ([19]; rate 0.032 kg/ha): 0.0 | CASOB herbicidal rating ([19]; rate 0.062 kg/ha): 0.0 | CASOB herbicidal rating ([19]; rate 0.125 kg/ha): 0.0
